Patent publication US11851391B2, “Antifungal compounds and methods of forming the same” (University of Kentucky Research Foundation, priority 2018, dated 2023)
Values after ≈ are worked out from the molar mass of the structure shown. Where two headings read alike, the source gives them in different places.

Experiments:
[1] = system: Candida albicans ATCC 10231(R) (strain A); test: MIC determination, in vitro antifungal assay (CLSI M27-A3); assay type: cell-based; conditions: MIC-0 (no visible growth), 48 h at 35° C.
Method: (§1) The activity of N,N′-diaryl-bishydrazones 7-22 was tested against a panel of seven strains of C. albicans: ATCC 10231(R) (A), ATCC 64124(R) (B), ATCC MYA-2876(S) (C), ATCC 90819(R) (D), ATCC MYA-2310(S) (E), ATCC MYA-1237(R) (F), and ATCC MYA-1003(R) (G). The activity of these bishydrazones 7-22 was also explored against a panel of three non-albicans Candida strains: C. glabrata ATCC 2001 (H), C. krusei ATCC 6258 (I), and C. parapsilosis ATCC 22019 (J). Finally, the activity of these bishydrazones 7-22 was explored against three Aspergillus strains: A. flavus ATCC MYA-3631 (K), A. nidulans ATCC 38163 (L), and A. terreus ATCC MYA-3633 (M).
(§2) Candida albicans ATCC 10231 (A), C. albicans ATCC 64124 (B), and C. albicans ATCC MYA-2876 (C) were kindly provided by Dr. Jon Y. Takemoto (Utah State University, Logan, UT, USA). C. albicans ATCC 90819 (D), C. albicans ATCC MYA-2310 (E), C. albicans ATCC MYA-1237 (F), C. albicans ATCC MYA-1003 (G), Candida glabrata ATCC 2001 (H), Candida krusei ATCC 6258 (I), Candida parapsilosis ATCC 22019 (J), Aspergillus flavus ATCC MYA-3631 (K), and Aspergillus terreus ATCC MYA-3633 (M) were obtained from the American Type Culture Collection (ATCC; Manassas, VA, USA). Aspergillus nidulans ATCC 38163 (L) was received from Dr. Jon S. Thorson (University of Kentucky, Lexington, KY, USA). Filamentous fungi and yeasts were cultivated at 35° C. in RPMI 1640 medium (with 1-glutamine, without sodium biocarbonate, Sigma-Aldrich, St. Louis, MO) buffered to a pH of 7.0 with 0.165 M morpholinepropanesulfonic acid (MOPS) buffer (Sigma-Aldrich).
(§3) The MIC values of compounds 7a-24c against yeast cells (strains A-J) were determined in 96-well plates as described in the CLSI document M27-A3 with minor modifications. A single colony of freshly prepared yeast cells was used to inoculate 5 mL of yeast extract peptone dextrose (YPD) broth prior to incubation overnight with shaking at 200 rpm at 35° C. From the actively growing yeast culture, 100 μL were then transferred to 900 μL of sterile ddH2O and re-adjusted to achieve OD600 of 0.12 (˜1×10^6 CFU/mL). The cell suspension was further diluted to achieve 2-4×10^3 CFU/mL in RPMI 1640 medium. […] The final concentration of DMSO was ensured to be <1.25% in all experiments. The MIC values for compounds 7a-24c and CAS were defined as the minimum drug concentration that yielded complete inhibition (also known as MIC-0).

[2] = system: Candida parapsilosis ATCC 22019 (strain J); test: as above; assay type: cell-based; conditions: strain J, MIC-0, 48 h at 35° C.
Method: as §1, §2, §3

[3] = system: C. albicans ATCC 64124(R) (strain B); test: as above; assay type: cell-based, Candida albicans; conditions: strain B, MIC-0, 48 h at 35° C.
Method: as §1, §2, §3

[4] = system: C. albicans ATCC 90819(R) (strain D); test: as above; assay type: cell-based, Candida albicans; conditions: Candida albicans, ATCC90819, 48 h, MIC-0, 48 h at 35° C., read-out: MIC
Method: as §1, §2, §3

[5] = system: C. albicans ATCC MYA-1237(R) (strain F); test: as above; assay type: cell-based, Candida albicans; conditions: MIC-0, 48 h at 35° C.
Method: as §1, §2, §3

[6] = system: C. albicans ATCC MYA-2310(S) (strain E); test: as above; assay type: cell-based, Candida albicans; conditions: MIC-0, 48 h at 35° C.
Method: as §1, §2, §3

[7] = system: C. albicans ATCC MYA-1003(R) (strain G); test: as above; assay type: cell-based, Candida albicans; conditions: Candida albicans, 48 h, MIC-0, 48 h at 35° C., read-out: MIC
Method: as §1, §2
(§4) A single colony of freshly prepared yeast cells was used to inoculate 5 mL of yeast extract peptone dextrose (YPD) broth prior to incubation overnight with shaking at 200 rpm at 35° C. From the actively growing yeast culture, 100 μL were then transferred to 900 μL of sterile ddH2O and re-adjusted to achieve OD600 of 0.12 (˜1×10^6 CFU/mL). The cell suspension was further diluted to achieve 2-4×10^3 CFU/mL in RPMI 1640 medium. […] The final concentration of DMSO was ensured to be <1.25% in all experiments.

[8] = system: C. albicans ATCC MYA-2876(S) (strain C); test: as above; assay type: cell-based, Candida albicans; conditions: MIC-0, 48 h at 35° C.
Method: as §1, §2, §4

[9] = system: Candida glabrata ATCC 2001 (strain H); test: as above; assay type: cell-based; conditions: MIC-0, 48 h at 35° C.
Method: as §1, §2, §4

[10] = system: Candida krusei ATCC 6258 (strain I); test: as above; assay type: cell-based; conditions: MIC-0, 48 h at 35° C.
Method: as §1, §2, §4

[11] = system: Aspergillus flavus ATCC MYA-3631 (strain K); test: MIC determination against filamentous fungi (CLSI M38-A2); assay type: cell-based; conditions: Aspergillus flavus, 48 h, MIC-0, 48 h at 35° C., read-out: MIC
Method: as §1, §2
(§5) Similarly, the MIC values of compounds 7a-24c, as well as that of the two control drugs against filamentous fungi (strains K-M) were determined as previously described in CLSI document M38-A2. Spores were harvested from sporulating cultures growing on potato dextrose agar (PDA) by filtration through sterile glass wool and enumerated by using a hemocytometer to obtain the desired inoculum size. […] Spore suspensions were added to the wells to afford a final concentration of 5×10^5 CFU/mL. The plates were incubated at 35° C. for 48 h. The MIC values of compounds 7a-24c and CAS against filamentous fungi were based on the complete inhibition of growth when compared to the growth control (MIC-0). […] Each test was performed in triplicate.

[12] = system: Aspergillus nidulans ATCC 38163 (strain L); test: as above; assay type: cell-based; conditions: Aspergillus nidulans, ATCC38163, 48 h, MIC-0, 48 h at 35° C., read-out: MIC
Method: as §1, §2, §5

[13] = system: Aspergillus terreus ATCC MYA-3633 (strain M); test: as above; assay type: cell-based; conditions: Aspergillus terreus, 48 h, MIC-0, 48 h at 35° C., read-out: MIC
Method: as §1, §2, §5

[14] = Candida albicans, ATCC10231, 48 h, read-out: MIC
[15] = Lodderomyces parapsilosis, ATCC22019, 48 h, read-out: MIC
[16] = Candida albicans, ATCC64124, 48 h, read-out: MIC
[17] = Candida albicans, 48 h, read-out: MIC
[18] = Nakaseomyces glabratus, ATCC2001, 48 h, read-out: MIC
[19] = Pichia kudriavzevii, ATCC6258, 48 h, read-out: MIC

Row | Compound | MIC [1, 14] | MIC [2, 15] | MIC [3, 16] | MIC [4] | MIC [5, 17] | MIC [6, 17] | MIC [7] | MIC [8, 17] | MIC [9] | MIC [9, 18] | MIC [10, 19] | MIC [11] | MIC [12] | MIC [13] | other results
1 | COc1cccc(N/N=C(\C)c2ccc(-c3ccc(/C(C)=N/Nc4cccc(OC)c4)cc3)cc2)c1 [Compound 11c] | 0.98 to 3.9 µg/mL (≈ 2.05 to 8.15 µM) | 15.6 µg/mL (≈ 32.6 µM) | 0.98 to 3.9 µg/mL (≈ 2.05 to 8.15 µM) | 31.3 µg/mL (≈ 65.4 µM) | 31.3 µg/mL (≈ 65.4 µM) | 15.6 µg/mL (≈ 32.6 µM) | – | 15.6 µg/mL (≈ 32.6 µM) | 15.6 µg/mL (≈ 32.6 µM) | 15.6 µg/mL (≈ 32.6 µM) | 0.98 to 3.9 µg/mL (≈ 2.05 to 8.15 µM) | > 31.3 µg/mL | > 31.3 µg/mL | > 31.3 µg/mL | MIC [1]: 0.98 µg/mL (≈ 2.05 µM); MIC [2]: 15.6 µg/mL (≈ 32.6 µM); MIC [3]: 0.98 µg/mL (≈ 2.05 µM); MIC [6]: 15.6 µg/mL (≈ 32.6 µM); MIC [8]: 15.6 µg/mL (≈ 32.6 µM); MIC [10]: 0.98 µg/mL (≈ 2.05 µM)
2 | C/C(=N\NC(=N)N)c1ccc(-c2ccc(/C(C)=N/NC(=N)N)cc2)cc1 [Compound 24c] | 3.9 µg/mL (≈ 11.1 µM) | 1.95 µg/mL (≈ 5.56 µM) | 3.9 µg/mL (≈ 11.1 µM) | 3.9 µg/mL (≈ 11.1 µM) | 15.6 µg/mL (≈ 44.5 µM) | 15.6 µg/mL (≈ 44.5 µM) | 15.6 µg/mL (≈ 44.5 µM) | 15.6 µg/mL (≈ 44.5 µM) | – | 7.8 µg/mL (≈ 22.3 µM) | 3.9 µg/mL (≈ 11.1 µM) | > 31.3 µg/mL | 15.6 µg/mL (≈ 44.5 µM) | > 31.3 µg/mL | –

The remaining molecules from weak to strong by MIC [1, 14], led by results:

Row | MIC [1, 14] | MIC [2, 15] | MIC [3, 16] | MIC [4] | MIC [5, 17] | MIC [6, 17] | MIC [7] | MIC [8, 17] | MIC [9] | MIC [9, 18] | MIC [10, 19] | MIC [11] | MIC [12] | MIC [13] | Compound | other results
3 | 31.3 µg/mL (≈ 57.1 µM) | > 31.3 µg/mL | 31.3 µg/mL (≈ 57.1 µM) | > 31.3 µg/mL | 7.8 µg/mL (≈ 14.2 µM) | > 31.3 µg/mL | 31.3 µg/mL (≈ 57.1 µM) | 31.3 µg/mL (≈ 57.1 µM) | 7.8 µg/mL (≈ 14.2 µM) | 7.8 µg/mL (≈ 14.2 µM) | > 31.3 µg/mL | 31.3 µg/mL (≈ 57.1 µM) | > 31.3 µg/mL | > 31.3 µg/mL | Brc1ccc(N/N=C/c2ccc(-c3cccc(/C=N/Nc4ccc(Br)cc4)c3)cc2)cc1 [Compound 19a] | MIC [5]: 7.8 µg/mL (≈ 14.2 µM)
4 | 31.3 µg/mL (≈ 97.1 µM) | 3.9 µg/mL (≈ 12.1 µM) | > 31.3 µg/mL | > 31.3 µg/mL | > 31.3 µg/mL | > 31.3 µg/mL | 15.6 µg/mL (≈ 48.4 µM) | > 31.3 µg/mL | – | > 31.3 µg/mL | 15.6 µg/mL (≈ 48.4 µM) | > 31.3 µg/mL | > 31.3 µg/mL | > 31.3 µg/mL | N=C(N)N/N=C/c1ccc(-c2ccc(/C=N/NC(=N)N)cc2)cc1 [Compound 24b] | –
5 | 7.8 µg/mL (≈ 18.3 µM) | 15.6 µg/mL (≈ 36.6 µM) | 7.8 µg/mL (≈ 18.3 µM) | 15.6 µg/mL (≈ 36.6 µM) | > 31.3 µg/mL | 31.3 µg/mL (≈ 73.4 µM) | 7.8 µg/mL (≈ 18.3 µM) | > 31.3 µg/mL | – | > 31.3 µg/mL | 1.95 µg/mL (≈ 4.57 µM) | 3.9 µg/mL (≈ 9.14 µM) | 7.8 µg/mL (≈ 18.3 µM) | > 31.3 µg/mL | Fc1ccccc1N/N=C/c1ccc(-c2cccc(/C=N/Nc3ccccc3F)c2)cc1 [Compound 10a] | –
